Test results as given in patent publication US20180207228A1, “PEPTIDE COMBINATIONS AND USES THEREOF FOR TREATING GRASS ALLERGY” (ALK-Abelló A/S, priority 2015, published 2018).
“Also recorded” adds a separate entry of the source. Where no end group is shown, it is not given here.

Columns and labels:
[1] = Peptide solubility by visual inspection; assay type: physicochemical; for Visual inspection after centrifugation pH 7: key: ok: clear solution; +: very small precipitation only visible with a magnifier; ++: precipitation/turbid solution; +++: more precipitation/turbid solution
Procedure: Water (pH 3-5) • 2. 250 mM D-Mannitol and 25 mM sodium acetate, pH 4.5 • 3. 250 mM D-Mannitol and 25 mM sodium phosphate, pH 7.0 • 4. […] Water (pH 3-5) • 2. 250 mM D-Mannitol and 25 mM sodium acetate, pH 4.5 • 3. 250 mM D-Mannitol and 25 mM sodium phosphate, pH 7.0 • 4. […] A subset of the peptides was selected as candidate peptides for a final peptide mixture. […] During the solubility studies the peptide-containing solutions were inspected visually before and after filtration for turbidity, and presence of particles/aggregates. In addition, presence of turbidity/particles/aggregates was also detected by optical density (OD) or absorbance of filtered material, but might also be detected by size-exclusion chromatography. Furthermore, Sub-visual particles may also be detected by dynamic light scattering (DLS) analysis on filtered and non-filtered peptide containing solutions. Samples were furthermore subjected to centrifugation to allow for the possible visual inspection of pelleted material.

[2] = test system: allergen specific T cells; assay: T cell proliferation assay (72 h) on donor derived T cell lines (TCL02/TCL03); assay type: cell-based, human; conditions: for T cell response in % of the donors tested: single peptide; for Proliferation % donor coverage (TCL-02 DK1): T cell lines TCL-02 DK1, 30 donors, hit criteria SI>=2, CPM>=1000; for Proliferation strength (TCL-02 DK1): T cell lines TCL-02 DK1, strength of response (average relative magnitude)
Outline: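 Overlapping 20-mer and selected 15-mer grass allergen peptides were screened for proliferation using TCL02 (day 24) or TCL03 (day 34) lines. Lines came from grass-allergic donors' CD8-depleted PBMCs, primed with natural allergen mix and expanded with irradiated autologous or allogeneic APCs, PHA-P 0.5 μg/ml and rIL-2.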

[3] = test system: grass allergic donor derived T cell lines (TCL-02 DK-2); assay: Cross-reactivity of homologue peptides, proliferation on TCL02-DK2 (Study XR1); assay type: cell-based, human; conditions: 2 μg/ml, TCL02-DK2, 21 donors
Procedure: To measure the experimental cross-reactivity the proliferation assay of Example 3 was carried out on 21 grass allergic donors (TCL02-DK2). […] Cross-reactivity to Phleum pratense peptides with either close (Lolium perenne (Lol p)) or distant (Phalaris aquatica (Pha a), Cynodon dactylon (Cyn d)) species was experimentally investigated.
For analysing the cross-reactivity data, it was investigated if a donor responds to both native and homologue peptide, XY correlation plots were made where the donor responses to native peptides were plotted versus the donor responses to homologues. […] If less than five donors were responding to the parent peptides, then the data was considered to be in-conclusive, and were thus labelled with “-”. For some of the peptides the analysis was further supported by performing a Spearman r-Non Parametric test (data not shown).
Further the magnitude of T cell response from a parent peptide as defined herein and homologue response were plotted in a XY plot by using GraphPad Prism 6.
To measure the experimental cross-reactivity, the proliferation assay of Example 3 was carried out on 21 grass pollen allergic donors (TCL02-DK2, Study XR1) and 20 grass pollen allergic donors (TCL03−DK1+DK2, Study XR2). […] In Study XR1, Cross-reactivity to Phleum pratense peptides with either close (Lolium perenne-Lol p) or distant ([…]-Pha a, Cynodon dactylon-Cyn d) species was experimentally investigated. In Study XR1, 67 homologue peptides corresponding to 41 native Phleum pratense peptides were investigated together with the 41 Phleum pratense peptides at a concentration of 2 μg/ml. Similarly, study XR2 was carried out on 20 grass pollen allergic donors where donor derived TCL-03 lines were used to investigate Phleum pratense cross-reactivity to Poa pratensis (Poa p), Dactylis glomerata (Dac g), Festuca pratensis (Fes p), Paspalum notatum (Pas n), Sorghum halepense (Sor h), Lolium perenne (Lol p), Phalaris aquatica (Pha a) and Cynodon dactylon (Cyn d).

[4] = 3 mg/mL, acetate salt, non-filtered, 250 mM D-Mannitol and 25 mM sodium phosphate, pH 7.0

Substance	solubility in aqueous solutions [1]	T cell response in % of the donors tested [2] [%]	solubility, 1st round of solubility screening [1]	experimental cross-reactivity [3]	Proliferation % donor coverage (TCL-02 DK1) [2] [%]	Proliferation strength (TCL-02 DK1) [2]	Visual inspection after 60 min pH 7 [1, 4]	Visual inspection after 60 min pH 4.5 ([1]; 3 mg/mL, acetate salt, non-filtered, 250 mM D-Mannitol and 25 mM sodium acetate, pH 4.5)	Visual inspection after centrifugation pH 4.5 ([1]; 3 mg/mL, acetate salt, non-filtered, 250 mM D-Mannitol and 25 mM sodium acetate, pH 4.5, after centrifugation)	Visual inspection after centrifugation pH 7 ([1]; 3 mg/mL, acetate salt, non-filtered, 250 mM D-Mannitol and 25 mM sodium phosphate, pH 7.0, after centrifugation)
AYESYKFIPALEAAVKQAYA-OH [peptide 285]	surprisingly good solubility in aqueous solutions	~50								
DKYRTFVATFGAASNKAFAE-OH [peptide 231]		~40	soluble	showed cross-reactivity						
PANDKFTVFEAAFNNAIKAS-OH [compound 70]			soluble	showed cross-reactivity; also recorded: good cross reactivity	46.67	8.10				
STGGAYESYKFIPALEAAVK-OH [compound 71]	surprisingly good solubility in aqueous solutions	~50	soluble	showed cross-reactivity; also recorded: very good cross-reactivity	46.67	8.20	tread +			
TDDNEEPIAPYHFDLSGHAF-OH [peptide 204]	surprisingly good solubility in aqueous solutions	~40	soluble	showed cross-reactivity; also recorded: good cross-reactivity						
VATLSEALRIIAGTLEVHAV-OH [compound 67]				showed cross-reactivity	43.33	7.30				
WGAIWRIDTPDKLTGPFTVR-OH [peptide 211]	surprisingly good solubility in aqueous solutions	~40	soluble				particles +	+ particles,	++	+++
